Measurements as given in patent publication US20210198277A1, “AMINE-SUBSTITUTED ARYL OR HETEROARYL COMPOUNDS” (Epizyme, Inc., priority 2016, published 2021).

Target: T1, EHMT2 (Homo sapiens, UniProt Q96KQ7)
T1 construct: host or cells: MDA-MB-231
T1 sequence (Q96KQ7 1-1210): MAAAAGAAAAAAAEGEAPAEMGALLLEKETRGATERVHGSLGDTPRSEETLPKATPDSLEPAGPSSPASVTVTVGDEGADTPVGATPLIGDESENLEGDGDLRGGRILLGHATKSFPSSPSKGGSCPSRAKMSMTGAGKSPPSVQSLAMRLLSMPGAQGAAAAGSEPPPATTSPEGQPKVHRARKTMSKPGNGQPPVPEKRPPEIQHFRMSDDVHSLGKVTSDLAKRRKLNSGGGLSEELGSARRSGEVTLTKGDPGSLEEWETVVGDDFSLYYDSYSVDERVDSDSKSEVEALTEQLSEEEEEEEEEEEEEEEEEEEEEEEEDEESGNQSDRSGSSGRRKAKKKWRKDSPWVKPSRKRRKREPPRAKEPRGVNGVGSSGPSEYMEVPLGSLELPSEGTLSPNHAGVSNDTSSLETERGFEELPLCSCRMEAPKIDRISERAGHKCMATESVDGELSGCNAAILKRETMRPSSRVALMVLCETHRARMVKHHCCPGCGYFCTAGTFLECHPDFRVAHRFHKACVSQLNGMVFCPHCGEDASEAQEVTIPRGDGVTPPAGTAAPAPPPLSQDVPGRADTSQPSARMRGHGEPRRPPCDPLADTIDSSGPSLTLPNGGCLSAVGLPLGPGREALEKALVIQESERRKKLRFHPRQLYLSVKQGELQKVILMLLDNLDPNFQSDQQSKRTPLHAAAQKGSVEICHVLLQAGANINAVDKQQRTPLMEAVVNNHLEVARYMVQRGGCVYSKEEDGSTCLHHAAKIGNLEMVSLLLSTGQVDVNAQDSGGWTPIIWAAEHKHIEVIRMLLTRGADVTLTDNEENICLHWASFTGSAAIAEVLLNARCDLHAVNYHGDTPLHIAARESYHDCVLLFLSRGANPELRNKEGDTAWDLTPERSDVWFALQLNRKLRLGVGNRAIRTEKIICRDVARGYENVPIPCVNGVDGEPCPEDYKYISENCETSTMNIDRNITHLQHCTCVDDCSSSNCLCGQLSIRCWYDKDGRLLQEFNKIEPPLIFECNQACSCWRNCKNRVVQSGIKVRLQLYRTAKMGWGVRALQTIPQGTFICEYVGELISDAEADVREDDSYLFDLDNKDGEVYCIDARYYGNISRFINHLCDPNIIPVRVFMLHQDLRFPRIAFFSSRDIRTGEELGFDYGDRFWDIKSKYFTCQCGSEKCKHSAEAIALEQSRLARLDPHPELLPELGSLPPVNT
Assay: MDA-MB-231 H3K9me2 in-cell Western assay (EHMT2 ICW)
Assay type: cell-based
Conditions: Table III; MDA-MB-231 H3K9me2 in-cell Western; read-out: EHMT2 ICW (IC50 μM)
How it was run: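 Cells seeded at 3,000/well onto pre-dispensed compound; 30 min RT, then 48 h 37 °C/5% CO2. PFA fix, block, α-H3K9me2 1:800 o/n 4 °C, 800CW secondary + DRAQ5. Odyssey scan 700/800 nm; ratio → % inhibition → 4-parameter IC50.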

Compound: CNc1cc(C)nc(Nc2ccc(OC)c(OCC3CN(CC4CC4)C3)c2)n1 [Compound 445, N^2-(3-((1-(cyclopropylmethyl)azetidin-3-yl)methoxy)-4-methoxyphenyl)-N^4,6-dimethylpyrimidine-2,4-diamine]
- IC50: 1 to 10 µM

Compound: CNc1cc(C)nc(Nc2ccc(OC)c(OCC3CCN(C4CCC4)C3)c2)n1 (centres unmarked) [Compound 446, N^2-(3-((1-cyclobutylpyrrolidin-3-yl)methoxy)-4-methoxyphenyl)-N^4,6-dimethylpyrimidine-2,4-diamine]
- IC50: 0.1 to 1 µM

Compound: COc1ccc(Nc2nc(C)cc(O)n2)cc1OCCCN1CCCC1 [Compound 447, 2-((4-methoxy-3-(3-(pyrrolidin-1-yl)propoxy)phenyl)amino)-6-methylpyrimidin-4-ol]
- IC50: > 10 µM

Compound: COc1ccc(Nc2cc(C)nc(O)n2)cc1OCCCN1CCCC1 [Compound 448, 4-((4-methoxy-3-(3-(pyrrolidin-1-yl)propoxy)phenyl)amino)-6-methylpyrimidin-2-ol]
- IC50: > 10 µM

Compound: CNc1cc(C)nc(Nc2ccc(OC)c(OCC3CCN(C4COC4)C3)c2)n1 (centres unmarked) [Compound 449, N^2-(4-methoxy-3-((1-(oxetan-3-yl)pyrrolidin-3-yl)methoxy)phenyl)-N^4,6-dimethylpyrimidine-2,4-diamine]
- IC50: 0.1 to 1 µM

Compound: CNc1cc(N2CCCC2)nc(Nc2ccc(OC)c(OCCCN3CCCC3)c2)n1 [Compound 450, N^2-(4-methoxy-3-(3-(pyrrolidin-1-yl)propoxy)phenyl)-N^4-methyl-6-(pyrrolidin-1-yl)pyrimidine-2,4-diamine]
- IC50: > 10 µM

Compound: COc1ccc(Nc2nc(C)cc(NCC3CCOCC3)n2)cc1OCC1CCN(C)C1 (centres unmarked) [Compound 451, N^2-(4-methoxy-3-((1-methylpyrrolidin-3-yl)methoxy)phenyl)-6-methyl-N^4-((tetrahydro-2H-pyran-4-yl)methyl)pyrimidine-2,4-diamine]
- IC50: 1 to 10 µM

Compound: CNc1cc(C)nc(Nc2ccc(OC)c(OCC3CCCO3)c2)n1 (centres unmarked) [Compound 452, N^2-(4-methoxy-3-((tetrahydrofuran-2-yl)methoxy)phenyl)-N^4,6-dimethylpyrimidine-2,4-diamine]
- IC50: > 10 µM
